This is an account of results in patent US20040166137A1, “Hetero-substituted benzimidazole compounds and antiviral uses thereof” (priority 2002, published 2004).

Data set [1] concerns rhinoviruses. Conditions: cited from earlier work.
In data set [2] the test system is RSV. Nature of the data set: Antiviral assay (PRA): inhibition of RSV syncytial plaque formation on Hep2 cell monolayers. The data set is classed as cell-based. To be noted: human respiratory syncytial virus, HEp-2; Table 2; RSV-infected Hep2 cells, 48 hours, syncytia counted; read-out: PRA (IC50). As for the experimental part: The lower the observed level of fusion, the greater the antiviral activity of the compound was determined to be. Uninfected confluent monolayers (seeded at 2.2×10^4 cells/well) of Hep2 cells were grown in microtiter wells (96-well plates) in EMEM (Eagle Minimum Essential Medium w/o L-glutamine [Bio Whittaker Cat. […] Bio Whittaker Cat. No. 14-[…]), antibiotics (penicillin/streptomycin; Bio Whittaker Cat. […] The plates were incubated for 24 hours and used for antiviral assays and cytotoxicity assays. To prepare Hep2 cells for addition to uninfected cells, cultures of […] infected Hep2 cells were washed with DPBS (Dulbecco's Phosphate Buffered Saline w/o calcium or magnesium; Bio Whittaker Cat. […] Gibco Life Technologies Cat. No. 15040-017). The cells were spun for 10 minutes and resuspended in 3% FBS. Cell counts were performed using a hemacytometer. Persistent cells were added to the uninfected Hep2 cells. The antiviral assay was conducted by first removing all medium from the wells containing uninfected Hep2 cells, adding 100 μl complete EMEM, then adding hetero-substituted benzimidazole compounds (eight 3-fold dilutions with 20 μM concentration as the highest final concentration) in 50 μl complete EMEM. Approximately 50 […] plaque forming units (PFU) of RSV in 50 μl was added per well and the plates were incubated in a CO2 incubator at 37° C. for 48 hours. Each plate contained uninfected control wells and infected untreated control wells for calculation of % inhibition (EC50) for each concentration. After incubation, cells in control wells were checked for fusion centers, medium was removed from the wells followed by addition to each well of either Crystal Violet stain or XTT. With respect to Crystal Violet, approximately 50μl 0.25% Crystal Violet stain in methanol was added to each well. The wells were rinsed immediately, to remove excess stain, and were allowed to dry. The number of syncytia per well were then counted, using a dissecting microscope. For antiviral assays at 48 hours post infection, cells in control wells were checked for syncytial plaques. Medium was removed from the wells followed by addition of approximately 50 Al Crystal Violet stain (0.25% Crystal Violet, 0.25% Giemsa dissolved in 10% formaldehyde, 70% methanol, and 20% H2O). The wells were incubated at room temperature for 5 minutes, rinsed with H2O to remove excess stain, and allowed to dry. The number of syncytia per well were counted using a dissecting microscope. The 50% inhibitory concentration (EC50) for each compound was calculated from the dose response curve. The compounds listed in Tables 1-2 have been screened for inhibitory activity against RSV.

A short description of data set [3]: XTT cytotoxicity assay on uninfected Hep2 cells. It counts as cell-based. Conditions: human. As for the experimental part: Uninfected confluent monolayers (seeded at 2.2×10^4 cells/well) of Hep2 cells were grown in microtiter wells (96-well plates) in EMEM (Eagle Minimum Essential Medium w/o L-glutamine [Bio Whittaker Cat. No. 12-125F] with 3% fetal bovine serum (FBS; which had been heat inactivated for 30 minutes at 56° C.; Bio Whittaker Cat. No. 14-501F), antibiotics (penicillin/streptomycin; Bio Whittaker Cat. No. 17-602E) added at 1%, and glutamine added at 1% (complete EMEM). The plates were incubated for 24 hours and used for antiviral assays and cytotoxicity assays.
Cytotoxicity assays were conducted by first removing all medium from the well containing uninfected Hep2 cells, adding 100 μl complete EMEM, and then adding hetero-substituted benzimidazole compounds (eight 3-fold dilutions with 100 μM concentration as the highest final concentration). Complete EMEM (50 μl) was added to each well instead of virus and the plates were incubated in a CO2 incubator at 37° C. for 48 hours.
At 48 hours, the cytotoxicity assays were developed by adding to each well 50 μl of XTT (1 mg/ml in PBS) containing 0.01-0.02 mM of the electron coupling agent phenazine methosulfate (PMS). The plates were incubated for 2-4 hours at 37° C. and then read in a 96-well plate reader at 450 nm. Plotting the % average OD of treated wells compared to the cell control vs. compound concentration generated dose response curves. CC50 (50% inhibitory cytotoxic concentration) values for each compound were then calculated from these curves. […]
Background: Tetrazolium dyes change colour on reduction, which living cells bring about.

Structures are written as SMILES. pIC50: −log10 of the molar value.

For the compound `COc1ccc2nc[nH]c2c1` [5-methoxybenzimidazole], in data set [1], the “inhibition of the cytopathic effect” value was 100%.

Consider `Cc1cc(S(=O)(=O)N2CCN(Cc3nc4cccnc4n3Cc3nc4ccccc4[nH]3)CC2)c(C)s1` [compound 28, 3-(1H-Benzoimidazol-2-ylmethyl)-2-[4-(2,5-dimethyl-thiophene-3-sulfonyl)-piperazin-1-ylmethyl]-3H-imidazo[4,5-b]pyridine], for which the pIC50 in data set [2] was 7.80. The 50% cytotoxic concentration (CC50) at 48 h in data set [3] was at least 100 µM.

On to `Cc1nn(C)c(Cl)c1S(=O)(=O)N1CCN(Cc2nc3cccnc3n2Cc2nc3ccccc3[nH]2)CC1` [compound 29, 3-(1H-Benzoimidazol-2-ylmethyl)-2-[4-(5-chloro-1,3-dimethyl-1H-pyrazole-4-sulfonyl)-piperazin-1-ylmethyl]-3H-imidazo[4,5-b]pyridine], for which the pIC50 in data set [2] was 6.70. The same compound had a CC50 at 48 h in data set [3] of at least 100 µM.

In the case of `O=S(=O)(c1ccc(F)cc1F)N1CCN(Cc2nc3cccnc3n2Cc2nc3ccccc3[nH]2)CC1` [compound 30, 3-(1H-Benzoimidazol-2-ylmethyl)-2-[4-(2,4-difluoro-benzenesulfonyl)-piperazin-1-ylmethyl]-3H-imidazo[4,5-b]pyridine], in data set [2], the pIC50 is 8.00. Besides, the CC50 at 48 h in data set [3] was at least 100 µM.

With `O=S(=O)(c1ccsc1)N1CCN(Cc2nc3cccnc3n2Cc2nc3ccccc3[nH]2)CC1` [compound 31, 3-(1H-Benzoimidazol-2-ylmethyl)-2-[4-(thiophene-3-sulfonyl)-piperazin-1-ylmethyl]-3H-imidazo[4,5-b]pyridine], the pIC50 in data set [2] was 8.00. In addition, in data set [3], the CC50 at 48 h was at least 100 µM.

Usually pIC50 stands for the IC50 on a negative log10 scale, so that one unit is a factor of ten. One may read the CC50 as the concentration giving 50% cytotoxicity. A lower CC50 goes with greater toxicity to the cells.
